Assay results as given in the NIST ThermoML archive (doi:10.1021/je500395f).

Conditions: Fluid (supercritical or subcritical phases), Coaxial cylinder method

CCC [propane]
thermal conductivity [W/m/K]
Conditions	370.45 K	371.05 K
2710 kPa	–	0.03205
3100 kPa	–	0.03344
3375 kPa	–	0.03463
3452 kPa	0.03558	–
3487 kPa	0.0359	–
3655 kPa	–	0.03745
3770 kPa	0.03805	–
3856 kPa	0.03938	–
3900 kPa	–	0.04056
3986 kPa	0.04204	–
4042 kPa	0.04385	–
4095 kPa	–	0.04417
4105 kPa	0.04623	–
4155 kPa	–	0.04633
4170 kPa	0.05102	–
4190 kPa	0.05329	–
4200 kPa	0.055	–
4205 kPa	0.05577	–
4215 kPa	–	0.04915
4217 kPa	0.05902	–
4224 kPa	0.06133	–
4227 kPa	0.06249	–
4232 kPa	0.06383	–
4235 kPa	–	0.0519
4241 kPa	0.06723	–
4244 kPa	0.06856	–
4245 kPa	0.06879	–
4250 kPa	0.07121	–
4252 kPa	–	0.05394
4255 kPa	0.0743	–
4260 kPa	0.0774	–
4265 kPa	0.08106	0.05669
4270 kPa	0.08804	–
4275 kPa	0.09622	–
4276 kPa	–	0.05854
4280 kPa	0.1118	–
4284 kPa	–	0.06121
4285 kPa	0.1252	–
4289 kPa	–	0.06357
4290 kPa	0.1423	–
4295 kPa	0.156	0.06602
4300 kPa	0.1452	–
4301 kPa	–	0.06867
4305 kPa	0.1291	–
4308 kPa	–	0.07332
4310 kPa	0.1181	–
4313 kPa	–	0.07659
4315 kPa	0.1061	–
4318 kPa	–	0.08141
4319 kPa	–	0.08406
4320 kPa	0.101	–
4322 kPa	–	0.08836
4324 kPa	–	0.09107
4325 kPa	0.09628	0.09395
4326 kPa	–	0.09568
4328 kPa	–	0.09934
4329 kPa	–	0.1013
4330 kPa	0.09201	–
4331 kPa	–	0.1054
4332 kPa	–	0.1075
4334 kPa	–	0.1104
4335 kPa	0.08809	–
4336 kPa	–	0.114
4337 kPa	–	0.1159
4338 kPa	–	0.1172
4339 kPa	–	0.1178
4340 kPa	0.08122	0.1185
4342 kPa	–	0.1192
4343 kPa	–	0.1192
4344 kPa	–	0.1192
4345 kPa	0.07814	0.1185
4346 kPa	–	0.1178
4347 kPa	–	0.1159
4349 kPa	–	0.1121
4350 kPa	0.07669	–
4351 kPa	–	0.1081
4354 kPa	–	0.1028
4355 kPa	0.07528	–
4356 kPa	–	0.09934
4358 kPa	–	0.09657
4360 kPa	0.07393	0.09395
4361 kPa	–	0.09311
4365 kPa	–	0.08989
4367 kPa	–	0.08836
4370 kPa	–	0.08616
4375 kPa	–	0.08406
4377 kPa	0.07217	–
4383 kPa	–	0.08141
4387 kPa	–	0.08015
4392 kPa	–	0.07865
4396 kPa	–	0.07776
4400 kPa	0.07099	–
4402 kPa	–	0.07633
4408 kPa	–	0.07494
4414 kPa	–	0.07363
4420 kPa	0.07014	0.07231
4440 kPa	–	0.07105
4485 kPa	–	0.06921
4560 kPa	0.06814	–
4580 kPa	0.06769	–
4800 kPa	0.06654	–
5000 kPa	0.06717	–
5500 kPa	0.06784	–
5550 kPa	0.06791	–
5760 kPa	0.06812	–
6000 kPa	0.06874	–
6500 kPa	0.06997	–
7000 kPa	0.07091	–
7500 kPa	0.07178	–
8000 kPa	0.07277	–
8500 kPa	0.07381	–
9000 kPa	0.07421	–
9500 kPa	0.07545	–
10000 kPa	0.07572	–
10500 kPa	0.07624	–
11000 kPa	0.07677	–
11200 kPa	0.07735	–
11300 kPa	0.07645	–
15100 kPa	0.08094	–
